Source: patent publication US7893299B2, “Interleukin-1 and tumor necrosis factor-αmodulators; syntheses of such modulators and methods of using such modulators” (Nereus Pharmaceuticals, Inc., priority 2005, dated 2011)

Key:
[1] = biological target: IKKα (Mus musculus, UniProt Q60680); format: cell-based; conditions: LPS-stimulated RAW264.7; 1, 5, 10 and 20 μM
Method: (§1) Cells were treated with 1, 5, 10 and 20 μM of NPI-1387 for 1 hour and then stimulated with 10 ng/ml LPS for 10 or 30 min. To determine the phosphorylation of IRAK1, whole cell extracts were prepared in RIPA buffer [0.9% NaCl, 50 mM Tris-HCl (pH7.4), 1% Triton X-100, 1 mM EDTA, 0.25% Na-deoxycholic acid, 0.1% SDS, 1 mM Na3VO4, 1 mM NaF and protease inhibitors]. […] Following electro-transfer, the membranes were blocked in Blotto (5%, w/v) non-fat milk in 1×TBST [20 mM Tris, 0.8% (w/v) NaCl, pH 7.6, 0.1% (v/v) Tween 20]. Membranes were then incubated with primary antibodies against IRAK1 (Santa Cruz Biotechnology), total IκBα (Cell Signaling Technology), phospho-IκBα (Cell Signaling Technology) and Tubulin (Lab Vision) in Blotto for 2 hours. The membranes were washed in TBST and (where necessary) incubated with the HRP-conjugated secondary antibody in Blotto for 1 hour before washing extensively with TBST. HRP activity was visualized by utilizing either SuperSignal West Pico or Dura chemiluminescent detection systems (Pierce Biotechnology). […] The protein samples were separated by 10% NuPAGE MES precast gels (Invitrogen) and the extent of GST-IκBα phosphorylation was evaluated by western blotting using the antibody against phospho-IκBα (Cell Signaling Technology).

[2] = tested on: IRAK1; format: cell-based; conditions: LPS-stimulated RAW264.7; 1, 5, 10 and 20 μM
Method: as §1

[3] = tested on: PC-3 colony formation; assay: PC-3 clonogenicity assay; format: cell-based
Method: PC-3 cells in 10 cm tissue culture dishes (200 cells/dish) were treated with 5 μM, 10 μM and 20 μM NPI-1387 for 0.5-24 hours in triplicates. DMSO was used as vehicle control. After each time point of drug treatment, the medium was removed, the dishes were washed two times with Dulbecco's phosphate buffered saline (DPBS), and supplied with fresh medium. Cells were cultured for 10 days with the medium replenished every 3 days. On the 10th day, dishes were washed with cold DPBS, fixed for 10 minutes in ice-cold 100% methanol at 4° C., and the colonies were stained with 0.5% (w/v) crystal violet. Colonies were counted manually, and the results expressed as % of colonies in relation to their respective vehicle control.

[4] = tested on: NF-κB p65 subunit nuclear translocation; format: cell-based; conditions: LPS-stimulated RAW264.7; 5, 10 and 20 μM
Method: Cells were pretreated with NPI-1387 (compound 24 under scheme 4 above) at 5, 10 and 20 μM for 1 hr, and then stimulated with 50 ng/ml LPS for 30 min. Coverslips were transferred to clean plates, washed twice in Dulbecco's phosphate buffered saline (DPBS), fixed in 10% formaldehyde for 10 min, and permeabilized with 0.2% Triton X-100 for additional 10 min. Blocking medium (DPBS, 2% BSA, 0.1% Triton X-100) was added for 2 h, and removed by aspiration. Polyclonal goat anti-p65 antibody (Santa Cruz Biotechnology) was added at a 1:1000 dilution for 1 hr. The wells were washed 3 times with DPBS containing 0.1% Triton X-100, and […] of Alexa-488-conjugated anti-goat antibody (1:1000 dilution, Molecular Probes) were added for 30 min. Wells were washed again, and the coverslips were mounted face-down on microscope slides using Vectashield (Vector) mounting medium. Slides were observed under an Olympus fluorescent microscope, images acquired using a Magnafire digital camera, and processed using Adobe Photoshop.

[5] = tested on: LPS/D-Gal administration; assay: mortality after LPS/D-Gal administration; format: in vivo; conditions: i.p., TTL3 administration 45 minutes prior to LPS

Sequence of IKKα (Q60680 whole entry): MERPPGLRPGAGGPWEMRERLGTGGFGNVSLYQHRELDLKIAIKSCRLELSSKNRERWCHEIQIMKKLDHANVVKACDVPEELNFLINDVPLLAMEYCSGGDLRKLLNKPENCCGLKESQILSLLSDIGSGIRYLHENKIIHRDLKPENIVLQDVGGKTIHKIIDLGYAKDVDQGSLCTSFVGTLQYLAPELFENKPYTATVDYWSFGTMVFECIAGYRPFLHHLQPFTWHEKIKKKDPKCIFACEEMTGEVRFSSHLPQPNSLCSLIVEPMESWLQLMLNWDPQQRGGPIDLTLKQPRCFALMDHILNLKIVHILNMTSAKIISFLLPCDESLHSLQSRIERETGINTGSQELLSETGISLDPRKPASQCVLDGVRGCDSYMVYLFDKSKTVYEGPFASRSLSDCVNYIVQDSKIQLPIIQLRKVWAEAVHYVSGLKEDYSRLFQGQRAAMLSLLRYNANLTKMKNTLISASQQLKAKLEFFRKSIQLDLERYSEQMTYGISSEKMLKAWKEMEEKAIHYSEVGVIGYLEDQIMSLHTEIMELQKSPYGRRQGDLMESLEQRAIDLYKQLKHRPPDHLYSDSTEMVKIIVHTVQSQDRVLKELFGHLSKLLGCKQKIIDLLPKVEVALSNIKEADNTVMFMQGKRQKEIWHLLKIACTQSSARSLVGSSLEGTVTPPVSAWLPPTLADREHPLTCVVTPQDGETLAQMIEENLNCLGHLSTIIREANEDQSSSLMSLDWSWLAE

Compound	kinase activity of IKKα [1]	phosphorylation of IRAK1 (and its downstream target IκBα) [2]	PC-3 colony formation ([3]; 5 μM, 10 μM and 20 μM for 0.5-24 hours)	PC-3 colony formation ([3]; exposure of 6 hr to 20 μM)	nuclear translocation of NF-κB (p65) / activated IRAK1 [4]	Mortality 24 hours [5]	Mortality 48 hours [5]
C=CC(=O)C1(C)CCCC2(C)C3=CCC(C)(C=C)C[C@@H]3CC[C@H]12 (stereo in doubt) [NPI-1387, 1-[(1S,4aS,7R)-1,4a,7-Trimethyl-7-vinyl-1,2,3,4,4a,6,7,8,8a,9,10,10a-dodecahydro-1-phenanthrenyl]-2-propen-1-one]	reduces kinase activity of IKKα in a dose-dependent manner	inhibits the phosphorylation of IRAK1	inhibits the colony formation of PC-3 cancer cells in a time-dependent and dose-dependent fashion	completely abolish	inhibits the NF-κB p65 subunit nuclear translocation in a dose-dependent manner		
C=C[C@@]1(C)CCC=C2[C@H]1CC[C@@H]1[C@](C)(C(=O)OC)CCC[C@@]21C [TTL3]						2/10	2/10
